The record followed here is ChEMBL document CHEMBL1151574, “Convergent syntheses and cytostatic properties of 2-chloro-2-deoxy-2-fluoroadenosine and its N7-isomer” (1995).

Calls of active or inactive are those of the source. No cut-off for these calls is given here.

In experiment [1] the test system is MOLT-3. In words: In vitro toxicity against acute T cell leukemia (MOLT-3) at a concentration of 0.1 ug/ml. It is filed as functional, Homo sapiens.
In experiment [2] the test system is Raji. In words: In vitro toxicity against Burkitt's lymphoma (B-cell) (Raji) at a concentration of 0.01 ug/ml. It is filed as functional, Homo sapiens.
In experiment [3] the test system is Raji. In words: In vitro toxicity against Burkitt's lymphoma (B-cell) (Raji) at a concentration of 0.1 ug/ml. It is filed as functional, Homo sapiens.
Experiment [4] concerns IM-9. Briefly: In vitro toxicity against myeloma cell line (IM-9) at a concentration of 1.0 ug/ml. In kind it is functional, Homo sapiens.
In experiment [5] the test system is PHA-Ly. Briefly: In vitro toxicity against phytohemagglutininin-stimulated peripheral blood lymphocytes (PHA-Ly) at a concentration of 0.01 ug/ml. In kind it is functional, Homo sapiens.
Experiment [6] concerns IM-9. In words: In vitro toxicity against myeloma cell line (IM-9) at a concentration of 0.01 ug/ml. It is filed as functional, Homo sapiens.
The subject of experiment [7] is U-937. Briefly: In vitro toxicity against histocytic lymphoma (U-937) at a concentration of 0.1 ug/ml. It is filed as functional, Homo sapiens.
Experiment [8] concerns U-937. Briefly: In vitro toxicity against histocytic lymphoma (U-937) at a concentration of 10 ug/ml. It is filed as functional, Homo sapiens.
The test system of experiment [9] is U-937. Briefly: In vitro toxicity against histocytic lymphoma (U-937) at a concentration of 1.0 ug/ml. It is filed as functional, Homo sapiens.
Experiment [10] relates to MOLT-3. Briefly: In vitro toxicity against acute T cell leukemia (MOLT-3) at a concentration of 0.01 ug/ml. In kind it is functional, Homo sapiens.
In experiment [11] the test system is IM-9. Briefly: In vitro toxicity against myeloma cell line (IM-9) at a concentration of 0.1 ug/ml. In kind it is functional, Homo sapiens.
In experiment [12] the test system is PHA-Ly. Briefly: In vitro toxicity against phytohemagglutininin-stimulated peripheral blood lymphocytes (PHA-Ly) at a concentration of 1.0 ug/ml. It is filed as functional, Homo sapiens.
Experiment [13] deals with U-937. Briefly: In vitro toxicity against histocytic lymphoma (U-937) at a concentration of 0.01 ug/ml. It is filed as functional, Homo sapiens.
For experiment [14], the system named is PHA-Ly. In words: In vitro toxicity against phytohemagglutininin-stimulated peripheral blood lymphocytes (PHA-Ly) at a concentration of 10 ug/ml. It is filed as functional, Homo sapiens.
Experiment [15] concerns MOLT-3. In words: In vitro toxicity against acute T cell leukemia (MOLT-3) at a concentration of 10 ug/ml. In kind it is functional, Homo sapiens.
Experiment [16] concerns Raji. In words: In vitro toxicity against Burkitt's lymphoma (B-cell) (Raji) at a concentration of 1.0 ug/ml. In kind it is functional, Homo sapiens.
The subject of experiment [17] is PHA-Ly. In words: In vitro toxicity against phytohemagglutininin-stimulated peripheral blood lymphocytes (PHA-Ly) at a concentration of 0.1 ug/ml. In kind it is functional, Homo sapiens.
Experiment [18] relates to Raji. Briefly: In vitro toxicity against Burkitt's lymphoma (B-cell) (Raji) at a concentration of 10 ug/ml. It is filed as functional, Homo sapiens.
Experiment [19] has as its system MOLT-3. In words: In vitro toxicity against acute T cell leukemia (MOLT-3) at a concentration of 1.0 ug/ml. In kind it is functional, Homo sapiens.
Experiment [20] deals with IM-9. In words: In vitro toxicity against myeloma cell line (IM-9) at a concentration of 10 ug/ml. It is filed as functional, Homo sapiens.
The subject of experiment [21] is U-937. In words: In vitro toxicity against histocytic lymphoma (U-937) at a concentration of 10 ug/ml; No significant toxicity. It is filed as functional, cell-based. The note with it: Homo sapiens.
For experiment [22], the system named is Raji. Briefly: In vitro toxicity against Burkitt's lymphoma (B-cell) (Raji) at a concentration of 10 ug/ml; No significant toxicity. It is filed as functional, cell-based. The note with it: Homo sapiens.
Experiment [23] concerns MOLT-3. Briefly: In vitro toxicity against acute T cell leukemia (MOLT-3) at a concentration of 10 ug/ml; No significant toxicity. It is filed as functional, cell-based. The note with it: Homo sapiens.
Experiment [24] has as its system PHA-Ly. Briefly: In vitro toxicity against phytohemagglutininin-stimulated peripheral blood lymphocytes (PHA-Ly) at a concentration of 10 ug/ml; No significant toxicity. In kind it is functional, cell-based. The conditions noted are these: Homo sapiens.
Experiment [25] has as its system IM-9. In words: In vitro toxicity against myeloma cell line (IM-9) at a concentration of 10 ug/ml; No significant toxicity. The note with it: Homo sapiens. It is filed as functional, cell-based.

Turning to `Nc1nc(Cl)nc2c1ncn2[C@@H]1O[C@H](CO)C(O)[C@H]1F` (single isomer, unassigned), the Toxicity in experiment [1] is reported as 79%; in [2], 103%; in experiment [3] it was 68%; in [4], 19%; in [5], 98%; in experiment [6], 108%. Further, the Toxicity in experiment [7] came out at 70%; in [8], 1.8%; in experiment [9] it was 4.9%; in experiment [10] it was 106%; in [11] it was 110%; in experiment [12], 17%. The Toxicity is listed as 99% in [13]; 4% in experiment [14]; 2.6% in experiment [15]; 9.1% in [16]; 90% in experiment [17]; 2.5% in experiment [18]. In addition, the values for the Toxicity in experiment [19] and in experiment [20] were 3.3% and 5.7%, respectively.
`Nc1nc(Cl)nc2ncn([C@@H]3O[C@H](CO)C(O)[C@H]3F)c12` (single isomer, unassigned): the Toxicity entry in experiment [21], in [22], in experiment [23], in [24] and in [25] was “inactive” throughout.
